Data: patent US4345938A, “Herbicidal 2-haloacetanilides” (Monsanto Company, priority 1980, dated 1982)
Where two headings read alike, the source gives them in different places.

Experiments:
Type in all cases: in vivo
Echinochloa crus-galli [1] = test: Greenhouse transplant rice test, EC; details: about 3 WAT, read-out: Percent Inhibition, EC; for inhibition at 280 g/ha: 0.28 Kg/Ha; for inhibition at 560 g/ha: 0.56 Kg/Ha; for inhibition at 1120 g/ha: 1.12 Kg/Ha; for inhibition at 2240 g/ha: 2.24 Kg/Ha
Source text: (§1) The test procedure used in this greenhouse test is as follows: Ray silt loam top soil containing about 0.05% by weight of krillium and sifted through a […] screen is fumigated about 5-10 days prior to use. Pots are then filled with said Ray silt loam soil to a level to allow for a 1 in. (2.54 cm) flooding depth. Rice plants (Bluebelle) of 2 to 3 weeks age are transplanted to the pots and bulbs or seeds of the test weeds also planted in the pots. The pots are then flooded and the test chemical applied to the surface of the flood water. The flood water is reduced to allow for germination of the Echinochloa crus-galli (barnyardgrass) seed and subsequently reflooded and maintained in that condition. Observations of percent inhibition using a scale of 0-100% are made about 3 weeks after transplant (WAT).
(§2) The test data in Table III for all compounds was obtained under identical test conditions. The weeds used in the tests herein have the following abbreviations in the tables: Echinochloa crus-galli (EC), Monochloria vaginalis (MV), Cyperus Serotinus (CS), Eleocharis Kuroguwai (EK) and Sagittaria trifolia (ST).

Eleocharis kuroguwai = test: Greenhouse transplant rice test, EK; details: about 3 WAT, read-out: Percent Inhibition, EK; for inhibition at 280 g/ha: 0.28 Kg/Ha; for inhibition at 560 g/ha: 0.56 Kg/Ha; for inhibition at 1120 g/ha: 1.12 Kg/Ha; for inhibition at 2240 g/ha: 2.24 Kg/Ha
Source text: as §1, §2

Echinochloa crus-galli [2] = test: Field transplant rice test, applied 0 DAT, EC; details: 0 h, read-out: Percent Inhibition, EC; for inhibition at 375 g/ha: 0.375 Kg/Ha; for inhibition at 750 g/ha: 0.75 Kg/Ha; for inhibition at 1500 g/ha: 1.5 Kg/Ha; for inhibition at 3000 g/ha: 3.0 Kg/Ha
Summary of the method: (§3)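 Field test in transplanted rice, herbicide applied as granules (2.5% or 5.0% w/w active) at transplanting (0 DAT). Rates from 3.0 kg/ha down to 0.375 kg/ha. Weed control observed weekly from 2 to 6 weeks after transplant, reported at 2, 4 and 6 WAT.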

Sagittaria trifolia = test: Field transplant rice test, applied 0 DAT, ST; details: 0 h, read-out: Percent Inhibition, ST; for inhibition at 375 g/ha: 0.375 Kg/Ha; for inhibition at 750 g/ha: 0.75 Kg/Ha; for inhibition at 1500 g/ha: 1.5 Kg/Ha; for inhibition at 3000 g/ha: 3.0 Kg/Ha
Summary of the method: as §3

Rice = test: Field transplant rice test, applied 9 DAT, rice injury; details: Oryza sativa, 216 h, read-out: Percent Inhibition, Rice; for inhibition at 375 g/ha: 0.375 Kg/Ha; for inhibition at 750 g/ha: 0.75 Kg/Ha; for inhibition at 1500 g/ha: 1.5 Kg/Ha; for inhibition at 3000 g/ha: 3.0 Kg/Ha
Summary of the method: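 Field transplant rice; herbicides applied as granules (2.5% by weight active, 5.0% for one prior-art comparator) at 9 days after transplant. Rates from 3.0 kg/ha (2.67 lb/A) down to 0.375 kg/ha (0.34 lb/A). Crop injury observed weekly from 3 to 7 weeks after transplant.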

Echinochloa crus-galli [3] = test: Field transplant rice test, applied 9 DAT, EC; details: for inhibition at 375 g/ha / inhibition at 750 g/ha / inhibition at 1500 g/ha / inhibition at 3000 g/ha: Echinochloa crus-galli, 216 h, read-out: Percent Inhibition, EC; for inhibition at 375 g/ha: 0.375 Kg/Ha; for inhibition at 750 g/ha: 0.75 Kg/Ha; for inhibition at 1500 g/ha: 1.5 Kg/Ha; for inhibition at 3000 g/ha: 3.0 Kg/Ha
Summary of the method: (§4)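 Field test in transplanted rice, herbicides applied as granules (2.5% or 5.0% w/w active) 9 days after transplant at 3.0 down to 0.375 kg/ha. Weed control observed weekly from 3 to 7 weeks after transplant.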

Monochoria vaginalis = test: Field transplant rice test, applied 9 DAT, MV; details: for inhibition at 375 g/ha / inhibition at 750 g/ha / inhibition at 1500 g/ha / inhibition at 3000 g/ha: Pontederia vaginalis, 216 h, read-out: Percent Inhibition, MV; for inhibition at 375 g/ha: 0.375 Kg/Ha; for inhibition at 750 g/ha: 0.75 Kg/Ha; for inhibition at 1500 g/ha: 1.5 Kg/Ha; for inhibition at 3000 g/ha: 3.0 Kg/Ha
Summary of the method: as §4

Work on `CCCCOCN(C(=O)CCl)c1c(CC)cccc1CC` [Compound A, 2',6'-diethyl-N-(n-butoxymethyl)-2-chloroacetanilide] yielded an inhibition at 280 g/ha (Echinochloa crus-galli [1]) of 96%, an inhibition at 560 g/ha (Echinochloa crus-galli [1]) of 100% and an inhibition at 1120 g/ha (Echinochloa crus-galli [1]) of 100%. It also gave an inhibition at 2240 g/ha (Echinochloa crus-galli [1]) of 100%, an inhibition at 280 g/ha (Eleocharis kuroguwai) of 50% and an inhibition at 560 g/ha (Eleocharis kuroguwai) of 100%. It also gave an inhibition at 1120 g/ha (Eleocharis kuroguwai) of 100%, an inhibition at 2240 g/ha (Eleocharis kuroguwai) of 100% and an inhibition at 375 g/ha (Echinochloa crus-galli [2]; 2 WAT) of 60%. The inhibition at 375 g/ha (Echinochloa crus-galli [2]; 4 WAT) was 72%, the inhibition at 375 g/ha (Echinochloa crus-galli [2]; 6 WAT) was 60% and the inhibition at 750 g/ha (Echinochloa crus-galli [2]; 2 WAT) was 90%. For the same compound, the inhibition at 750 g/ha (Echinochloa crus-galli [2]; 4 WAT) was 100%, the inhibition at 750 g/ha (Echinochloa crus-galli [2]; 6 WAT) was 100% and the inhibition at 1500 g/ha (Echinochloa crus-galli [2]; 2 WAT) was 95%. The inhibition at 1500 g/ha (Echinochloa crus-galli [2]; 4 WAT) was 100%, the inhibition at 1500 g/ha (Echinochloa crus-galli [2]; 6 WAT) was 97% and the inhibition at 3000 g/ha (Echinochloa crus-galli [2]; 2 WAT) was 98%. For the same compound, the inhibition at 3000 g/ha (Echinochloa crus-galli [2]; 4 WAT) was 100%, the inhibition at 3000 g/ha (Echinochloa crus-galli [2]; 6 WAT) was 100% and the inhibition at 375 g/ha (Sagittaria trifolia; 2 WAT) was 37%. For the same compound, the inhibition at 375 g/ha (Sagittaria trifolia; 4 WAT) was 22%, the inhibition at 375 g/ha (Sagittaria trifolia; 6 WAT) was 7% and the inhibition at 750 g/ha (Sagittaria trifolia; 2 WAT) was 52%. The inhibition at 750 g/ha (Sagittaria trifolia; 4 WAT) was 20%, the inhibition at 750 g/ha (Sagittaria trifolia; 6 WAT) was 15% and the inhibition at 1500 g/ha (Sagittaria trifolia; 2 WAT) was 60%. It also gave an inhibition at 1500 g/ha (Sagittaria trifolia; 4 WAT) of 33%, an inhibition at 1500 g/ha (Sagittaria trifolia; 6 WAT) of 20% and an inhibition at 3000 g/ha (Sagittaria trifolia; 2 WAT) of 42%. For the same compound, the inhibition at 3000 g/ha (Sagittaria trifolia; 4 WAT) was 33%, the inhibition at 3000 g/ha (Sagittaria trifolia; 6 WAT) was 12% and the inhibition at 375 g/ha (Rice; 3 WAT) was 10%. The inhibition at 375 g/ha (Rice; 5 WAT) was 8%, the inhibition at 375 g/ha (Rice; 7 WAT) was 8% and the inhibition at 750 g/ha (Rice; 3 WAT) was 13%. For the same compound, the inhibition at 750 g/ha (Rice; 5 WAT) was 3%, the inhibition at 750 g/ha (Rice; 7 WAT) was 7% and the inhibition at 1500 g/ha (Rice; 3 WAT) was 12%. It also gave an inhibition at 1500 g/ha (Rice; 5 WAT) of 7%, an inhibition at 1500 g/ha (Rice; 7 WAT) of 5% and an inhibition at 3000 g/ha (Rice; 3 WAT) of 12%. It also gave an inhibition at 3000 g/ha (Rice; 5 WAT) of 7%, an inhibition at 3000 g/ha (Rice; 7 WAT) of 5% and an inhibition at 375 g/ha (Echinochloa crus-galli [3]; 3 WAT) of 23%. For the same compound, the inhibition at 375 g/ha (Echinochloa crus-galli [3]; 5 WAT) was 20%, the inhibition at 375 g/ha (Echinochloa crus-galli [3]; 7 WAT) was 17% and the inhibition at 750 g/ha (Echinochloa crus-galli [3]; 3 WAT) was 80%. The inhibition at 750 g/ha (Echinochloa crus-galli [3]; 5 WAT) was 75%, the inhibition at 750 g/ha (Echinochloa crus-galli [3]; 7 WAT) was 70% and the inhibition at 1500 g/ha (Echinochloa crus-galli [3]; 3 WAT) was 88%. It also gave an inhibition at 1500 g/ha (Echinochloa crus-galli [3]; 5 WAT) of 90%, an inhibition at 1500 g/ha (Echinochloa crus-galli [3]; 7 WAT) of 85% and an inhibition at 3000 g/ha (Echinochloa crus-galli [3]; 3 WAT) of 93%. The inhibition at 3000 g/ha (Echinochloa crus-galli [3]; 5 WAT) was 93%, the inhibition at 3000 g/ha (Echinochloa crus-galli [3]; 7 WAT) was 90% and the “selectivity factor (GR15/GR85), EC in transplant rice” value (Echinochloa crus-galli [3]; between 3 WAT and 7 WAT) was 2. The inhibition at 375 g/ha (Monochoria vaginalis; 3 WAT) was 90%, the inhibition at 375 g/ha (Monochoria vaginalis; 5 WAT) was 98% and the inhibition at 375 g/ha (Monochoria vaginalis; 7 WAT) was 80%. It also gave an inhibition at 750 g/ha (Monochoria vaginalis; 3 WAT) of 92%, an inhibition at 750 g/ha (Monochoria vaginalis; 5 WAT) of 87% and an inhibition at 750 g/ha (Monochoria vaginalis; 7 WAT) of 60%. For the same compound, the inhibition at 1500 g/ha (Monochoria vaginalis; 3 WAT) was 100%, the inhibition at 1500 g/ha (Monochoria vaginalis; 5 WAT) was 100% and the inhibition at 1500 g/ha (Monochoria vaginalis; 7 WAT) was 100%. For the same compound, the inhibition at 3000 g/ha (Monochoria vaginalis; 3 WAT) was 100%, the inhibition at 3000 g/ha (Monochoria vaginalis; 5 WAT) was 100% and the inhibition at 3000 g/ha (Monochoria vaginalis; 7 WAT) was 100%. The “selectivity factor (GR15/GR85), MV in transplant rice” value (Monochoria vaginalis; between 3 WAT and 7 WAT) was 8.

`CCCCOc1cccc(CC)c1N(CC)C(=O)CCl` [Example 2, N-ethyl-2'-n-butoxy-6'-ethyl-2-chloroacetanilide] gave an inhibition at 280 g/ha (Echinochloa crus-galli [1]) of 100%, an inhibition at 560 g/ha (Echinochloa crus-galli [1]) of 100% and an inhibition at 1120 g/ha (Echinochloa crus-galli [1]) of 100%. The inhibition at 2240 g/ha (Echinochloa crus-galli [1]) was 100%, the inhibition at 280 g/ha (Eleocharis kuroguwai) was 100% and the inhibition at 560 g/ha (Eleocharis kuroguwai) was 100%. The inhibition at 1120 g/ha (Eleocharis kuroguwai) was 100% and the inhibition at 2240 g/ha (Eleocharis kuroguwai) was 100%.
